Values joined by “and” are separate entries in the source; they are usually repeats but may differ in a detail not shown here. Equal entries are not always repeated.
How the values were obtained:
KRAS/PIK3CA colon model = KRAS/PIK3CA colon model (FIG. 19); format: in vivo
[1] = test system: PI3 kinase signaling pathway in MDA-MB-361, HCC-1419, NCI-H1048; assay: Cellular signaling immunoblot in human tumor cell lines; format: cell-based; settings: Compound B 5-100 nM, Compound A 1 and 3 μM, 2 or 24 hours, Western blot, FIG. 15
Description: Compound A was synthesized at Intellikine and was supplied as a stock of 10 mM in 100% DMSO and diluted in the respective cell line's growth media.
Prior to treatment, cells were plated at 2×10^5 cells/well in 12-well plates in normal growth media and grown to 80% confluence.
Media was aspirated, cells were washed with 1×PBS, Ice cold 1× Cell Lysis Buffer was prepared from 10× stock and 100 μM 4-(2-Aminoethyl)benzenesulfonyl fluoride hydrochloride (AEBSF) and 1 mM sodium orthovanadate […] was added. Cells were lysed by adding 1× Cell Lysis Buffer (100 μL per well of 12-well plate of cells). Cells incubated on ice for 20 to 30 minutes to allow complete lysis, and lysates were transferred to microcentrifuge tubes, sonicated for 10 seconds, and subjected to microcentrifugation at 14,000×g for 10 minutes at 4° C. Cleared supernatants were transferred to fresh tubes, and stored at −20° C. for Western blot analysis. […] Molecular weight markers were loaded, the gel electrophoresed at 200V for 40 minutes.
The gels were electrotransferred to nitrocellulose membranes, and incubated in blocking buffer (Tris buffered saline plus 0.5% Tween-20 (TBS/T)+5% bovine serum albumin (BSA)) for 1 hour at room temperature. […]

[2] = test system: MDA-MB-361 human breast cancer xenografts; assay: Antitumor activity and tumor regrowth, MDA-MB-361 xenografts (Example 42); format: in vivo, Mus musculus; settings: for MTV on Day 65: n = 4; for % TGI on Day 65: based on the control group on Day 65; for TGI: Day 29
Description: (room temperature), shielded from light. The test article Compound A was prepared in 5% NMP+95% PEG400 every 5 to 7 days and stored at approximately 25° C. (room temperature), shielded from light. The control article used in this study was 5% NMP+95% PEG400. Compounds were completely dissolved in NMP by sonication, followed by the addition of an appropriate volume of PEG400, and the final solution was vortexed and sonicated to ensure thorough mixing.
Low-passage MDA-MB-361 cells were grown in Eagle's Minimal Essential Medium (EMEM) media supplemented with 20% fetal bovine serum (FBS) and 1× penicillin/streptomycin (Invitrogen, Carlsbad, Calif., USA) until approximately 80% confluency was reached. Before injection, the cells were detached with GIBCO® trypsin (Invitrogen), washed twice with phosphate-buffered saline (PBS), and resuspended in Roswell Park Memorial Institute (RPMI) media (Invitrogen) without supplements. Cells were resuspended to a final concentration of 5×10^7 cells/mL in RPMI media without supplements. MDA-MB-361 cells (5.0×10^6 cells/animal in 0.1-mL injection volume) were implanted SC into the flank of female athymic nu/nu nude mice. The animals used in this study are described in the following table.
Female 5 to 6-week old female (athymic nu/nu) nude mice were inoculated SC in the flank with 5.0×10^6 MDA-MB-361 cells. Tumor growth was monitored with vernier calipers. The MTV was calculated using the formula V=W^2×L÷2. When the MTV reached approximately 235 mm^3, the animals were randomized into 4 treatment groups (n=8/group). Treatment started on Day 0. […] Tumor growth and body weight were measured twice weekly. Percent TGI and body weight change were calculated on Day 29. Four mice from each group were euthanized on Day 29 and tissues were harvested for pharmacodynamic studies. The remaining mice continued on study until Day 65, and tumor size and body weight in these mice were measured every 9 to 11 days.
Antitumor activity was determined by calculating the percent TGI using Equation 1: Percent TGI)=(MTV of the control group−MTV of a treated group) MTV of the control group×100
Tumor growth delay was determined by calculating the time until MTV in a given treatment group reached 1000 mm^3 versus the time until MTV in the control group reached 1000 mm^3.
The differences in trends of tumor growth over time between pairs of treatment groups were assessed using linear mixed-effects regression models. These models account for the fact that each animal was measured at multiple time points. A separate model was fit for each comparison, and the AUC for each treatment group was calculated using the predicted values from the model. The percent decrease in AUC (ΔAUC) relative to the reference group was then calculated.
A statistical analysis was performed with a linear mixed-effects regression model that takes into account the differences in trends of tumor growth between control and treated samples. Differences among mice were treated as random effects, and a compound symmetry covariance structure was used to model the variability between repeated tumor measurements for each mouse. Treatment comparisons were performed by using the fitted curves from the model to calculate the ΔAUC. The significance of the ΔAUC was assessed using permutation testing. All p values less than 0.05 were considered significant.
A combination score calculation was used to address the question of whether the effects of the combination treatments were more than additive (synergistic), additive, or subadditive (antagonistic) relative to the individual treatments. […] All p values less than 0.05 were considered significant.

pAKT in PC3 cells = assay: Inhibition of PI3K pathway, pAKT Western blot; format: cell-based, human; settings: PC3 model, FIG. 7
Description: Cells comprising one or more mutations in PI3Kα, including but not limited to breast cancer cells (e.g., MDA-MB-361, T47D, SKOV-3), and cells comprising one or more mutations in PTEN including but not limited to prostate cancer cells (e.g., PC3), are typically grown in cell growth media such as DMEM supplemented with fetal bovine serum and/or antibiotics, and grown to confluency. Cells are then treated with various concentrations of test compound for about 2 hours and subsequently lysed in cell lysis buffer. Lysates are subjected to SDS-PAGE followed by Western blot analysis to detect downstream signaling markers, including but not limited to pAKT(S473), pAKT(T308), pS6, and p4E-BP1.

Row | SMILES | activity in a KRAS/PIK3CA colon model (KRAS/PIK3CA colon model) | inhibition of phosphorylation of downstream targets AKT, S6, 4E-BP1 [1] | MTV on Day 65 ([2]; 60 mg/kg PO QD until Day 29, regrowth) | % TGI on Day 65 ([2]; 60 mg/kg PO QD until Day 29) | TGI ([2]; 60.0 mg/kg PO QD) | inhibition of Akt phosphorylation, serine 473 vs threonine 308 (pAKT in PC3 cells) | TGI ([2]; 0.3 mg/kg PO QD for 30 days) | MTV on Day 65 ([2]; 0.3 mg/kg PO QD until Day 29, regrowth) | % TGI on Day 65 ([2]; 0.3 mg/kg PO QD until Day 29) | MTV on Day 29 ([2]; 0.3 mg/kg PO QD, n = 8)
1 | Nc1nc2cc(-c3ccc4ncc(C(=O)N5CCOCC5)n4c3)ccc2o1 [Compound A] | not effective | potently inhibited | 500 mm^3 and 511.4 ± 568^ mm^3 | 69.5% | 77.4% | – | – | – | – | –
2 | CC(C)n1nc(-c2ccc3oc(N)nc3c2)c2c(N)ncnc21 [Compound B] | not effective | potently inhibited | – | – | – | differential inhibition of Akt phosphorylation at serine 473 over threonine 308 | 71.1% | 649.6 ± 457.7 mm^3 | 61.3% | 210.9 mm^3 and 210.9 ± 103.3 mm^3

From patent US20150087627A1, “COMBINATION OF KINASE INHIBITORS AND USES THEREOF” (Intellikine LLC, priority 2011, published 2015)
